In the supplement of paper PMC10307832 one finds relative viability data, which are given here for ten cell lines.

Holding throughout (test): relative viability (nuclei count vs DMSO), 5 days (fraction); higher = more cells survive
Compound in the assay “NVP-TAE684 + Bortezomib”: COc1cc(N2CCC(N3CCN(C)CC3)CC2)ccc1Nc1ncc(Cl)c(Nc2ccccc2S(=O)(=O)C(C)C)n1 [NVP-TAE684] + CC(C)C[C@H](NC(=O)[C@H](Cc1ccccc1)NC(=O)c1cnccn1)B(O)O [Bortezomib] (partner 0.002 µM)
The procedure, abridged:
(§1)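 The day after seeding in 1536-well plates, lung cancer cell lines were treated by pin tool with a single drug, or with a fixed anchor-drug dose together with five library-drug doses (not always all listed) in √10 steps. After 5 days, a combined fix-and-stain solution (final 0.05% Triton X-100, 1% formaldehyde, 1 ug/ml Hoechst) was added. Nuclei counted on 4× images gave relative viability as treated counts over vehicle counts, reported as the median of duplicate plates.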

Compound in the assay “NVP-TAE684 + Lapatinib”: COc1cc(N2CCC(N3CCN(C)CC3)CC2)ccc1Nc1ncc(Cl)c(Nc2ccccc2S(=O)(=O)C(C)C)n1 [NVP-TAE684] + CS(=O)(=O)CCNCc1ccc(-c2ccc3ncnc(Nc4ccc(OCc5cccc(F)c5)c(Cl)c4)c3c2)o1 [Lapatinib] (partner 2 µM)
The procedure, abridged: as §1

Compound in the assay “CUDC-101 + Vorinostat”: C#Cc1cccc(Nc2ncnc3cc(OC)c(OCCCCCCC(=O)NO)cc23)c1 [CUDC-101] + O=C(CCCCCCC(=O)Nc1ccccc1)NO [Vorinostat] (partner 1 µM)
Put shortly:
as §1

Compound in the assay “NVP-TAE684 + Palbociclib”: COc1cc(N2CCC(N3CCN(C)CC3)CC2)ccc1Nc1ncc(Cl)c(Nc2ccccc2S(=O)(=O)C(C)C)n1 [NVP-TAE684] + CC(=O)c1c(C)c2cnc(Nc3ccc(N4CCNCC4)cn3)nc2n(C2CCCC2)c1=O [Palbociclib] (partner 0.5 µM)
The procedure, abridged: as §1

Compound in assay [1]: C1=CC=C2C(=C1)N=C(S2)C(C#N)C3=NC(=NC=C3)NCCC4=CN=CC=C4 + Nc1ncn([C@H]2C[C@H](O)[C@@H](CO)O2)c(=O)n1 [Decitabine] (partner 2 µM)
Put shortly: as §1

For HCC-366, the relative viability is 0.855 in the assay with NVP-TAE684 + Bortezomib (first compound 0.2 µM); 1.08 with NVP-TAE684 + Bortezomib (first compound 0.6325 µM); 1.17 in the assay with NVP-TAE684 + Bortezomib (first compound 2 µM); 1.58 with NVP-TAE684 + Lapatinib (first compound 0.2 µM); 0.932 with NVP-TAE684 + Lapatinib (first compound 0.6325 µM); 0.963 with NVP-TAE684 + Lapatinib (first compound 2 µM). The relative viability with CUDC-101 + Vorinostat (first compound 0.01 µM) was found to be 0.393; with CUDC-101 + Vorinostat (first compound 0.03162 µM), 0.312; in the assay with CUDC-101 + Vorinostat (first compound 0.1 µM) it was 0.29; with CUDC-101 + Vorinostat (first compound 0.3162 µM), 0.313; with CUDC-101 + Vorinostat (first compound 1 µM) it was 0.254; with NVP-TAE684 + Palbociclib (first compound 0.2 µM), 0.352. Moreover, the relative viability was 0.4 in the assay with NVP-TAE684 + Palbociclib (first compound 0.6325 µM); 0.166 with NVP-TAE684 + Palbociclib (first compound 2 µM); 0.328 in assay [1] (first compound 0.005 µM); 0.385 in assay [1] (first compound 0.01581 µM); 0.363 in assay [1] (first compound 0.05 µM); 0.344 in assay [1] (first compound 0.1581 µM). Also, the relative viability in assay [1] (first compound 0.5 µM) is 0.321.
On to HCC-827, for which the relative viability in the assay with NVP-TAE684 + Bortezomib (first compound 0.6325 µM) was 0.988; with NVP-TAE684 + Bortezomib (first compound 2 µM), 1.05; with NVP-TAE684 + Lapatinib (first compound 0.2 µM), 0.187; in the assay with NVP-TAE684 + Lapatinib (first compound 0.6325 µM) it was 0.203; with NVP-TAE684 + Lapatinib (first compound 2 µM), 0.207; with CUDC-101 + Vorinostat (first compound 0.01 µM), 0.929. For the same cell line, the relative viability in the assay with CUDC-101 + Vorinostat (first compound 0.03162 µM) came out at 0.835; with CUDC-101 + Vorinostat (first compound 0.1 µM) it was 0.168; with CUDC-101 + Vorinostat (first compound 0.3162 µM), 0.156; with CUDC-101 + Vorinostat (first compound 1 µM), 0.14; with NVP-TAE684 + Palbociclib (first compound 0.2 µM), 0.452; in the assay with NVP-TAE684 + Palbociclib (first compound 0.6325 µM) it was 0.511. The relative viability with NVP-TAE684 + Palbociclib (first compound 2 µM) came to 0.5; in assay [1] (first compound 0.005 µM), 0.318; in assay [1] (first compound 0.01581 µM), 0.322; in assay [1] (first compound 0.05 µM) it was 0.319; in assay [1] (first compound 0.1581 µM) it was 0.399; in assay [1] (first compound 0.5 µM) it was 0.328.
In the case of IA-LM, the relative viability was 0.679 in the assay with NVP-TAE684 + Bortezomib (first compound 0.2 µM); 0.563 in the assay with NVP-TAE684 + Bortezomib (first compound 0.6325 µM); 0.583 with NVP-TAE684 + Bortezomib (first compound 2 µM); 0.698 with NVP-TAE684 + Lapatinib (first compound 0.2 µM); 0.66 with NVP-TAE684 + Lapatinib (first compound 0.6325 µM); 0.427 in the assay with NVP-TAE684 + Lapatinib (first compound 2 µM). Further, the relative viability was 0.997 with CUDC-101 + Vorinostat (first compound 0.01 µM); 0.915 in the assay with CUDC-101 + Vorinostat (first compound 0.03162 µM); 0.93 with CUDC-101 + Vorinostat (first compound 0.1 µM); 0.797 with CUDC-101 + Vorinostat (first compound 0.3162 µM); 0.586 in the assay with CUDC-101 + Vorinostat (first compound 1 µM).
For LCLC-103H, the relative viability stood at 1.09 in the assay with NVP-TAE684 + Bortezomib (first compound 0.2 µM); 1.11 with NVP-TAE684 + Bortezomib (first compound 0.6325 µM); 0.759 with CUDC-101 + Vorinostat (first compound 0.01 µM); 0.81 with CUDC-101 + Vorinostat (first compound 0.03162 µM); 0.7 with CUDC-101 + Vorinostat (first compound 0.1 µM); 0.692 with CUDC-101 + Vorinostat (first compound 0.3162 µM). The relative viability worked out at 0.61 with CUDC-101 + Vorinostat (first compound 1 µM); 0.482 in the assay with NVP-TAE684 + Palbociclib (first compound 0.2 µM); 0.447 with NVP-TAE684 + Palbociclib (first compound 0.6325 µM); 0.413 in the assay with NVP-TAE684 + Palbociclib (first compound 2 µM); 0.723 in assay [1] (first compound 0.005 µM); 0.731 in assay [1] (first compound 0.01581 µM). Moreover, the values for the relative viability in assay [1] (first compound 0.05 µM), in assay [1] (first compound 0.1581 µM) and in assay [1] (first compound 0.5 µM) were 0.69, 0.762 and 0.751, respectively.
Turning to LK-2, the relative viability was 1.01 in the assay with NVP-TAE684 + Lapatinib (first compound 0.2 µM); 0.721 with NVP-TAE684 + Lapatinib (first compound 0.6325 µM); 0.69 with NVP-TAE684 + Lapatinib (first compound 2 µM); 0.37 in the assay with CUDC-101 + Vorinostat (first compound 0.01 µM); 0.407 with CUDC-101 + Vorinostat (first compound 0.03162 µM); 0.228 with CUDC-101 + Vorinostat (first compound 0.1 µM). Besides, the relative viability was determined as 0.23 in the assay with CUDC-101 + Vorinostat (first compound 0.3162 µM); 0.158 in the assay with CUDC-101 + Vorinostat (first compound 1 µM); 0.614 in the assay with NVP-TAE684 + Palbociclib (first compound 0.2 µM); 0.756 in the assay with NVP-TAE684 + Palbociclib (first compound 0.6325 µM); 0.296 in the assay with NVP-TAE684 + Palbociclib (first compound 2 µM); 0.27 in assay [1] (first compound 0.005 µM). Further, the relative viability in assay [1] (first compound 0.01581 µM) turned out to be 0.288; in assay [1] (first compound 0.05 µM), 0.39; in assay [1] (first compound 0.1581 µM) it was 0.352; in assay [1] (first compound 0.5 µM) it was 0.352.
Turning to NCI-H358, the relative viability with NVP-TAE684 + Lapatinib (first compound 0.2 µM) turned out to be 0.397; with NVP-TAE684 + Lapatinib (first compound 0.6325 µM), 0.328; with NVP-TAE684 + Lapatinib (first compound 2 µM) it was 0.256; with CUDC-101 + Vorinostat (first compound 0.01 µM), 0.697; with CUDC-101 + Vorinostat (first compound 0.03162 µM), 0.733; in the assay with CUDC-101 + Vorinostat (first compound 0.1 µM), 0.695. Also, the relative viability came out at 0.447 with CUDC-101 + Vorinostat (first compound 0.3162 µM); 0.128 in the assay with CUDC-101 + Vorinostat (first compound 1 µM); 0.125 in the assay with NVP-TAE684 + Palbociclib (first compound 0.2 µM); 0.121 with NVP-TAE684 + Palbociclib (first compound 0.6325 µM); 0.0895 in the assay with NVP-TAE684 + Palbociclib (first compound 2 µM); 0.234 in assay [1] (first compound 0.005 µM). Besides, the relative viability in assay [1] (first compound 0.01581 µM) came to 0.21; in assay [1] (first compound 0.05 µM), 0.221; in assay [1] (first compound 0.1581 µM) it was 0.216; in assay [1] (first compound 0.5 µM), 0.206.
On to NCI-H441, for which the relative viability is 0.516 with NVP-TAE684 + Bortezomib (first compound 0.2 µM); 0.358 with NVP-TAE684 + Bortezomib (first compound 0.6325 µM); 0.204 in the assay with NVP-TAE684 + Bortezomib (first compound 2 µM); 0.968 with CUDC-101 + Vorinostat (first compound 0.01 µM); 0.915 with CUDC-101 + Vorinostat (first compound 0.03162 µM); 0.784 with CUDC-101 + Vorinostat (first compound 0.1 µM). Further, the relative viability in the assay with CUDC-101 + Vorinostat (first compound 0.3162 µM) was 0.937; with CUDC-101 + Vorinostat (first compound 1 µM) it was 0.618; in the assay with NVP-TAE684 + Palbociclib (first compound 0.2 µM) it was 0.182; with NVP-TAE684 + Palbociclib (first compound 0.6325 µM), 0.192; in the assay with NVP-TAE684 + Palbociclib (first compound 2 µM), 0.154; in assay [1] (first compound 0.005 µM), 0.267. Also, the relative viability in assay [1] (first compound 0.01581 µM) was found to be 0.303; in assay [1] (first compound 0.05 µM), 0.252; in assay [1] (first compound 0.1581 µM), 0.246; in assay [1] (first compound 0.5 µM) it was 0.239.
For NCI-H522, the relative viability stood at 0.758 in the assay with CUDC-101 + Vorinostat (first compound 0.01 µM); 0.769 with CUDC-101 + Vorinostat (first compound 0.03162 µM); 1.09 with CUDC-101 + Vorinostat (first compound 0.1 µM); 0.921 with CUDC-101 + Vorinostat (first compound 0.3162 µM); 0.779 in the assay with CUDC-101 + Vorinostat (first compound 1 µM); 0.973 with NVP-TAE684 + Palbociclib (first compound 0.2 µM). Also, the relative viability with NVP-TAE684 + Palbociclib (first compound 0.6325 µM) was found to be 0.99; in the assay with NVP-TAE684 + Palbociclib (first compound 2 µM), 0.893; in assay [1] (first compound 0.005 µM), 0.718; in assay [1] (first compound 0.01581 µM) it was 0.651; in assay [1] (first compound 0.05 µM) it was 0.607; in assay [1] (first compound 0.1581 µM), 0.639. Further, in assay [1] (first compound 0.5 µM), the relative viability amounted to 0.66.
For NCI-H596, the relative viability in the assay with NVP-TAE684 + Bortezomib (first compound 0.2 µM) is 1.3; with NVP-TAE684 + Bortezomib (first compound 0.6325 µM), 0.919; in the assay with NVP-TAE684 + Lapatinib (first compound 0.2 µM), 0.915; with NVP-TAE684 + Lapatinib (first compound 0.6325 µM) it was 0.949; with NVP-TAE684 + Lapatinib (first compound 2 µM), 0.893; with CUDC-101 + Vorinostat (first compound 0.01 µM) it was 0.569. Also, the relative viability with CUDC-101 + Vorinostat (first compound 0.03162 µM) worked out at 0.605; with CUDC-101 + Vorinostat (first compound 0.1 µM), 0.501; with CUDC-101 + Vorinostat (first compound 0.3162 µM), 0.735; with CUDC-101 + Vorinostat (first compound 1 µM) it was 0.501; in assay [1] (first compound 0.005 µM), 0.711; in assay [1] (first compound 0.01581 µM) it was 1. Also, the results for the relative viability in assay [1] (first compound 0.05 µM), in assay [1] (first compound 0.1581 µM) and in assay [1] (first compound 0.5 µM) were 1, 0.919 and 0.985, respectively.
Take NCI-H1299: the relative viability came to 1.03 in the assay with NVP-TAE684 + Bortezomib (first compound 0.2 µM); 1.02 with NVP-TAE684 + Bortezomib (first compound 0.6325 µM); 1.06 in the assay with NVP-TAE684 + Bortezomib (first compound 2 µM); 1.03 with NVP-TAE684 + Lapatinib (first compound 0.2 µM); 0.964 with NVP-TAE684 + Lapatinib (first compound 0.6325 µM); 0.836 with NVP-TAE684 + Lapatinib (first compound 2 µM).
